This is an account of results in ChEMBL document CHEMBL1201862, “PubChem BioAssay data set” (2004).

Test systems include KM12; RXF 393; NCI/ADR-RES; HOP-92; SNB-75; A549; MDA-MB-231; T47D; ACHN; SK-MEL-28; MCF7; SR; EKVX; K562; SF-268; SW-620; DU-145; U-251; SN12C; HCT-116.
Holding throughout (assay): DTP human tumour cell line panel, 48 h

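Briefly, cells in 96-well plates were exposed to five compound concentrations for 48 h, and endpoints were estimated by linear interpolation. Here, GI50 denotes the concentration required for 50% inhibition of growth.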 Active and inactive are the calls of the source. Cut-off read from the data, not from the text of the source: active = GI50 up to about 1.1 µM and inactive = higher.

Consider `COc1ccccc1/C=C1\CCC(Cc2ccccc2)(CN(C)C)C1=O` (stereo not given), for which the GI50 in the assay with KM12 was 0.319 µM (active); with RXF 393, 7.93 µM (inactive); with NCI/ADR-RES it was 0.989 µM (active); in the assay on HOP-92, 27.5 µM (inactive); with SNB-75, 3.32 µM (inactive); with A549 it was 3.44 µM (inactive). In addition, the GI50 in the assay on MDA-MB-231 was 4.59 µM (inactive); with T47D, 22.2 µM (inactive); in the assay with ACHN, 12.6 µM (inactive); in the assay with SK-MEL-28 it was 20.3 µM (inactive); with MCF7, 0.292 µM (active); in the assay on SR, 0.0948 µM (active). Also, the GI50 was 3.35 µM (inactive) with EKVX; 0.0851 µM (active) in the assay with K562; 4.85 µM (inactive) with SF-268; 0.259 µM (active) in the assay with SW-620; 7.93 µM (inactive) with DU-145; 0.524 µM (active) with U-251. The GI50 is 3.75 µM (inactive) in the assay on SN12C and 0.406 µM (active) with HCT-116.

As to `CC(=O)OCc1cncn1S(=O)(=O)c1ccc(C)cc1`, the GI50 in the assay with KM12 is 31.7 µM (inactive); with RXF 393, > 100 µM (inactive); with NCI/ADR-RES, > 55.5 µM (inactive); in the assay on HOP-92 it was > 100 µM (inactive); in the assay with SNB-75 it was > 100 µM (inactive); in the assay with A549, > 100 µM (inactive). Also, the GI50 in the assay with MDA-MB-231 was > 100 µM (inactive); with T47D it was 79.4 µM (inactive); in the assay with ACHN, > 100 µM (inactive); with SK-MEL-28 it was > 100 µM (inactive); in the assay on MCF7 it was > 25.4 µM (inactive); in the assay with SR, 11.4 µM (inactive). Besides, the GI50 was > 100 µM (inactive) with EKVX; 5.37 µM (inactive) in the assay on K562; > 100 µM (inactive) in the assay on SF-268; 36.4 µM (inactive) in the assay on SW-620; > 100 µM (inactive) in the assay with DU-145; > 87.7 µM (inactive) in the assay on U-251. Further, the GI50 with SN12C was > 91.2 µM (inactive); in the assay with HCT-116, 25.6 µM (inactive).

As to `Cc1cnc2nc(-c3cccc4ccccc34)cc(O)c2c1`, the 50% growth inhibitory concentration (GI50) is 0.000551 µM (active) in the assay on KM12; 0.000346 µM (active) with RXF 393; 0.000428 µM (active) in the assay with NCI/ADR-RES; 0.182 µM (active) with HOP-92; 0.000407 µM (active) with SNB-75; 0.0014 µM (active) in the assay with A549. Moreover, the GI50 in the assay on MDA-MB-231 is 0.00493 µM (active); in the assay with T47D it was 26 µM (inactive); in the assay with ACHN, 0.00119 µM (active); with SK-MEL-28, 0.000619 µM (active); with MCF7 it was 0.00121 µM (active); in the assay on SR it was 0.000352 µM (active). The GI50 in the assay on EKVX was 0.00282 µM (active); in the assay with K562 it was 0.000462 µM (active); with SF-268, 0.000516 µM (active); in the assay on SW-620 it was 0.000449 µM (active); in the assay with DU-145, 0.00394 µM (active); with U-251 it was 0.000532 µM (active). Also, the GI50 in the assay on SN12C was 0.00869 µM (active); with HCT-116 it was 0.000652 µM (active).

For `CCNc1nnc(-c2ccccc2Nc2ccccc2-c2nnc(NCC)s2)s1`, the GI50 in the assay with KM12 was 9.46 µM (inactive); in the assay with RXF 393, 21.6 µM (inactive); with NCI/ADR-RES, 10.5 µM (inactive); with HOP-92 it was 5.92 µM (inactive); in the assay with SNB-75 it was 18.2 µM (inactive); in the assay on A549 it was 13.5 µM (inactive). Also, the GI50 with MDA-MB-231 was 8.02 µM (inactive); in the assay on T47D, 5.32 µM (inactive); in the assay on ACHN it was 7.35 µM (inactive); in the assay with SK-MEL-28 it was 18.4 µM (inactive); with MCF7, 2.28 µM (inactive); in the assay with SR, 47.8 µM (inactive). The GI50 was 20.9 µM (inactive) in the assay on EKVX; 37.2 µM (inactive) in the assay with K562; 13.4 µM (inactive) in the assay with SF-268; 19.4 µM (inactive) in the assay with SW-620; 4.72 µM (inactive) in the assay on DU-145; 11.4 µM (inactive) with U-251. Moreover, the GI50 in the assay with SN12C was 18.9 µM (inactive); in the assay with HCT-116, 9.89 µM (inactive).

As to `Nc1cccc(/C=C/C(=O)N2CCN(CCOC(c3ccccc3)c3ccccc3)CC2)c1`, the GI50 is 17 µM (inactive) in the assay with KM12; 15.3 µM (inactive) with RXF 393; 17.3 µM (inactive) in the assay with NCI/ADR-RES; 12.9 µM (inactive) in the assay on HOP-92; 13.1 µM (inactive) in the assay with SNB-75; 16.6 µM (inactive) with A549. Besides, the GI50 is 15.7 µM (inactive) with MDA-MB-231; 13.1 µM (inactive) with T47D; 16.1 µM (inactive) in the assay with ACHN; 15 µM (inactive) with SK-MEL-28; 16.8 µM (inactive) in the assay with MCF7; 14.4 µM (inactive) in the assay with SR. Besides, the GI50 is 18.7 µM (inactive) in the assay on EKVX; 9.98 µM (inactive) with K562; 17.4 µM (inactive) in the assay with SF-268; 15.7 µM (inactive) with SW-620; 15.1 µM (inactive) in the assay with DU-145; 15.8 µM (inactive) in the assay with U-251. In addition, the GI50 was 17.5 µM (inactive) in the assay with SN12C and 15.5 µM (inactive) in the assay on HCT-116.

Turning to `C(=C\c1cccs1)/c1cccc(/C=C/c2cccs2)n1`, the GI50 in the assay with KM12 was 4.3 µM (inactive); in the assay with RXF 393, > 100 µM (inactive); in the assay on NCI/ADR-RES it was > 100 µM (inactive); with HOP-92, > 100 µM (inactive); with SNB-75 it was 19.3 µM (inactive); in the assay with A549, 60.7 µM (inactive). In addition, the GI50 was > 100 µM (inactive) in the assay on MDA-MB-231; 6.14 µM (inactive) with T47D; 8.11 µM (inactive) in the assay on ACHN; > 100 µM (inactive) in the assay with SK-MEL-28; 3.55 µM (inactive) in the assay on MCF7; 32.4 µM (inactive) with SR. Further, the GI50 with EKVX was > 100 µM (inactive); in the assay on K562, > 100 µM (inactive); with SF-268, 2.61 µM (inactive); in the assay with SW-620, 24.8 µM (inactive); in the assay on DU-145 it was > 100 µM (inactive); with U-251, 54.7 µM (inactive). Also, the GI50 in the assay on SN12C was 61 µM (inactive); in the assay with HCT-116 it was > 100 µM (inactive).

In the case of `CCCCCCCCCCCCCCCCCCOCC(O)COP(=O)(O)OCC1OC(n2ccc(N)nc2=O)C(O)C1O` (stereo not given), the GI50 in the assay on KM12 was 17.1 µM (inactive); in the assay with RXF 393, 12.9 µM (inactive); with NCI/ADR-RES, 19.1 µM (inactive); in the assay on HOP-92, 19.9 µM (inactive); in the assay with SNB-75, 13 µM (inactive); with A549 it was 3.85 µM (inactive). Moreover, the GI50 in the assay with MDA-MB-231 was 25.8 µM (inactive); in the assay with T47D, 62.5 µM (inactive); with ACHN, 11.3 µM (inactive); in the assay with SK-MEL-28 it was 57.5 µM (inactive); with MCF7, 22 µM (inactive); in the assay on SR, 17 µM (inactive). The GI50 is 61.8 µM (inactive) in the assay with EKVX; 28.2 µM (inactive) in the assay on K562; 16.9 µM (inactive) in the assay with SF-268; 35.6 µM (inactive) with SW-620; 98.2 µM (inactive) in the assay on DU-145; 11.9 µM (inactive) in the assay with U-251. Further, the GI50 in the assay with SN12C is 36.6 µM (inactive); in the assay with HCT-116 it was 10.9 µM (inactive).

Regarding `C=CC(OC(C)=O)c1ccc(OC(=O)C(C)C)c(OC)c1` (stereo not given), the GI50 in the assay with KM12 is 2.67 µM (inactive); in the assay on RXF 393 it was 3.18 µM (inactive); in the assay on NCI/ADR-RES, 10.2 µM (inactive); in the assay with HOP-92, 5.93 µM (inactive); in the assay on SNB-75, 4.86 µM (inactive); with A549, 18.8 µM (inactive). For the same compound, the GI50 in the assay with MDA-MB-231 was 4.72 µM (inactive); in the assay on T47D it was 2.86 µM (inactive); in the assay on ACHN, 3.34 µM (inactive); in the assay with SK-MEL-28, 11.1 µM (inactive); with MCF7, 2.36 µM (inactive); in the assay on SR, 2.49 µM (inactive). Also, the GI50 in the assay on EKVX is 7.5 µM (inactive); in the assay with K562, 3.15 µM (inactive); in the assay on SF-268, 7.8 µM (inactive); in the assay on SW-620 it was 2.6 µM (inactive); with DU-145, 11.5 µM (inactive); in the assay on U-251, 2.39 µM (inactive). The GI50 with SN12C was 3.63 µM (inactive); in the assay with HCT-116, 5.85 µM (inactive).

For `Cc1ccc(C2SC(=N)Nc3c2c(C)nn3C(=O)c2ccccc2O)cc1` (stereo not given), the GI50 was > 10 µM (inactive) in the assay with KM12; > 10 µM (inactive) in the assay with RXF 393; > 10 µM (inactive) in the assay on NCI/ADR-RES; 0.475 µM (active) with HOP-92; 2.54 µM (inactive) with SNB-75; 3.16 µM (inactive) in the assay on A549. The GI50 was > 10 µM (inactive) in the assay with MDA-MB-231; > 10 µM (inactive) in the assay on T47D; 6.03 µM (inactive) in the assay on ACHN; > 10 µM (inactive) in the assay on SK-MEL-28; > 10 µM (inactive) in the assay on MCF7; > 10 µM (inactive) in the assay with SR. The GI50 is > 10 µM (inactive) in the assay on EKVX; 4.35 µM (inactive) with K562; 9.44 µM (inactive) in the assay on SF-268; > 10 µM (inactive) in the assay with SW-620; > 10 µM (inactive) in the assay on DU-145; 5.38 µM (inactive) with U-251. For the same compound, the GI50 in the assay with SN12C and in the assay with HCT-116 was > 10 µM (inactive) throughout.

In the case of `Nc1nc(Cl)c(N)c(NCC2(CO)CC2)n1`, the GI50 in the assay on KM12, with RXF 393, with NCI/ADR-RES, with HOP-92, with SNB-75 and in the assay on A549 was > 100 µM (inactive) throughout. Moreover, the GI50 with MDA-MB-231, in the assay with T47D, with ACHN, with SK-MEL-28, in the assay on MCF7 and in the assay with SR was > 100 µM (inactive) each time. Besides, the GI50 in the assay with EKVX, with K562, with SF-268, in the assay on SW-620, in the assay with DU-145 and in the assay on U-251 was > 100 µM (inactive) each time. Moreover, the GI50 in the assay on SN12C and with HCT-116 was > 100 µM (inactive) throughout.

Broadly, the GI50 is the concentration that inhibits growth by half.
